{"source": "patent EP4729530A1", "about": "“NOVEL PEPTIDE AND USE THEREOF” (Gemvax & Kael Co., Ltd., priority 2023, dated 2024)", "key": {"[1]": {"test_system": "4R Tau^P301L-BiFC mouse", "assay": "Open field experiment in 4R tauopathy mouse model", "type": "in vivo", "settings": "GV2002 2 mg/kg subcutaneous, 3 times/week, 21 weeks; 10 minutes open field", "protocol": "(§1) In vivo experiments were performed on the 4R tauopathy mouse groups shown in FIG. 4 according to the schedule shown in FIG. 5 and the outline in Table 3 below.\nOpen field experiments were conducted on mice with 4R tauopathy administered GV2002 for five months, from 7.5 to 12.5 months of age, to evaluate the efficacy of GV2002 in alleviating impairment in motor ability.\nTo prevent changes in mouse behavioral responses, handling was performed for five days (days 1 to 5) prior to the experiment. Each handling session lasted two minutes. On day 6, mice were placed in a 40 cm × 40 cm enclosure and subjected to an open field experiment for 10 minutes. Prior to the experiment, mice were allowed one hour to acclimate to the testing environment. During the open field experiment, movement trajectories, distance traveled, and movement speed of the mice were recorded. The illumination level was maintained at a constant level throughout the experiment. The recorded values were analyzed using one-way ANOVA with Dunnett's multiple comparisons test."}, "[2]": {"test_system": "tau oligomer formation", "assay": "Brain Tau-BiFC imaging for tau oligomer formation", "type": "in vivo, mouse", "settings": "GV2002 2 mg/kg subcutaneous, 3 times/week, 21 weeks", "protocol": "as §1\nBrains from a 4R tauopathy mouse model administered GV2002 for five months, from 7.5 to 12.5 months of age, were removed and analyzed using lipid staining.\nBrain tissue sampling was performed in the same manner as in Example 4-5.\nTo remove autofluorescence from brain tissues through lipid staining, a 0.05% Sudan Black B solution in 70% ethanol was stirred overnight and then filtered through a 0.22-µm filter. 30-µm-thick frozen brain sections from each region were immersed in deionized water and washed three times for 5 minutes each. The brain tissue was then immersed in the prepared 0.05% Sudan Black B solution for 10 minutes to perform staining. The brain tissue stained with Sudan Black B was immersed in 0.1% PBS-T solution and washed at 30-second intervals to adjust the staining intensity and then washed three times with deionized water for 5 minutes each. Nuclear staining was performed by immersing the brain tissue in a 0.2-µg/mL Hoechst solution in deionized water for 20 minutes. The tissue was then washed three times with deionized water for 5 minutes each. Tau-BiFC imaging was performed using a slide scanner.\nTo obtain fluorescence images of the stained brain tissue, brain tissue slides were scanned using a Zeiss Axio Scan. Tau-BiFC fluorescence levels in each brain region obtained through fluorescence imaging, i.e., the somatosensory cortex, hippocampus (CA1), motor cortex, and substantia nigra, were calculated using ImageJ software. The calculated values were analyzed using one-way ANOVA with Dunnett's multiple comparisons test."}, "[3]": {"test_system": "total tau (Tau5) and phosphorylated tau (pS199, pS396)", "assay": "Brain lysate analysis by tau immunoblot (soluble and insoluble fractions)", "type": "in vivo, mouse", "settings": "GV2002 2 mg/kg subcutaneous, 3 times/week, 21 weeks", "protocol": "as §1\nBrain lysates from a 4R tauopathy mouse model administered GV2002 for five months, from 7.5 to 12.5 months of age, were obtained. Soluble and insoluble fraction samples were subjected to immunoblotting using antibodies against total tau (Tau5) and phosphorylated tau (pS199, pS396), and the levels of total and phosphorylated tau were quantitatively analyzed.\nMouse models were anesthetized, saline was intracardially perfused, and blood was removed using a perfusion pump device. The brain was then removed and weighed. 1 mL of RIPA buffer (containing protease and phosphatase inhibitor cocktails) was added to the extracted brain and homogenized.\nThe homogenized brain lysates were transferred to EP tubes and incubated on an orbital shaker at 4°C for 2 hours. After centrifugation at 13,000 rpm for 20 minutes at 4°C, the supernatant (soluble fraction) was collected in a new EP tube and stored at -80°C.\nTo prepare samples for immunoblotting, the concentrations of the fractionated samples were quantified using the Bradford protein quantification assay. RIPA buffer and 4X SDS Laemmli sample buffer (containing 2.5% β-mercaptoethanol for reducing conditions) were added to each sample to adjust the final protein concentration to 2 mg/mL. The samples were then boiled at 97°C for 5 minutes.\nMeanwhile, to obtain the insoluble fraction, the remaining pellet after supernatant removal was resuspended in RIPA buffer containing 1 M sucrose (1 mL) and DNase I (1 mg/mL). […]\n20 µg of each brain lysate sample of soluble and insoluble fractions were loaded onto a 10% SDS-PAGE gel (SDS-PAGE running buffer: 1X Tris/Glycine/SDS buffer in 3' D.W.), and electrophoresis was performed at 80 V for 30 minutes followed by 90 V for 1 hour. […] Protein bands of the membrane were detected using ChemiDoc with ECL solution, which is HRP substrate, and band intensities were quantified using ImageJ software (NIH)."}, "[4]": {"settings": "soluble fraction of brain lysate"}}, "data": [{"substance": "Ac-EARPALLTSRLRFIPK-NH2 [GV2002]", "values": [{"measurement": "movement speed in the open space compared to the vehicle-administered group", "setting": "[1]", "result": "significantly higher"}, {"measurement": "total distance traveled in the open space compared to the vehicle-administered group", "setting": "[1]", "result": "significantly higher"}, {"measurement": "Tau-BiFC fluorescence intensity, reduction compared to the vehicle-administered group", "setting": "[2]; hippocampus region", "result": 63, "unit": "%"}, {"measurement": "Tau-BiFC fluorescence intensity, reduction compared to the vehicle-administered group", "setting": "[2]; motor cortex region", "result": 56, "unit": "%"}, {"measurement": "Tau-BiFC fluorescence intensity, reduction compared to the vehicle-administered group", "setting": "[2]; somatosensory cortex region", "result": 58, "unit": "%"}, {"measurement": "Tau-BiFC fluorescence intensity, reduction compared to the vehicle-administered group", "setting": "[2]; substantia nigra region", "result": 56, "unit": "%"}, {"measurement": "level of insoluble tau, reduced to (compared to the vehicle-administered group)", "setting": "[3]; insoluble fraction of brain lysate, total tau (Tau5)", "result": 57, "unit": "%"}, {"measurement": "phosphorylated tau pS199, reduced to (compared to the vehicle-administered group)", "setting": "[3]; [4]", "result": 66, "unit": "%"}, {"measurement": "phosphorylated tau pS396, reduced to (compared to the vehicle-administered group)", "setting": "[3]; [4]", "result": 56, "unit": "%"}]}]}
